These results are taken from patent publication US4705753A, “Biologically active acrylonitrile-based copolymeric membrane” (priority 1984, dated 1987).

In this assay the target is glucose isomerase (GI) from Streptomyces albus, purified, covalently immobilized on acrylonitrile copolymer membrane (Streptomyces albus G, UniProt P24299). To be noted: substrate glucose; membrane-bound GI; 70° C., pH 6.8 maleate buffer, 7 mM MgSO4, 3 mM CoSO4.
Chain of glucose isomerase (GI) from Streptomyces albus, purified, covalently immobilized on acrylonitrile copolymer membrane (P24299 whole entry): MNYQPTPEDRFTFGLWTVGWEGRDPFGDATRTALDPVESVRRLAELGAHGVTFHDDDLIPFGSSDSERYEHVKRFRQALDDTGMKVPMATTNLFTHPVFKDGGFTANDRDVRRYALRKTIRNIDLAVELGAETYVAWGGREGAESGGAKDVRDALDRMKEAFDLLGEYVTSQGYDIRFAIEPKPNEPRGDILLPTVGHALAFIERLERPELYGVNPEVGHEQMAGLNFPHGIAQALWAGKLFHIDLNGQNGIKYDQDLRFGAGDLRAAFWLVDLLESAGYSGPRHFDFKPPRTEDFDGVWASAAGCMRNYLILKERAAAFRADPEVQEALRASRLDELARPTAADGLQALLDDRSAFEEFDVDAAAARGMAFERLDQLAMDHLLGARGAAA

As to `OC[C@H]1OC(O)[C@H](O)[C@@H](O)[C@@H]1O` (stereo partly shown) [glucose], the “Vmax for the immobilized GI” value is around 15 µmol/min/mg.
